Measurements reported in patent US20210346506A1, “PRODRUG OF ITRACONAZOLE AND USES THEREOF” (priority 2020, published 2021).

Key:
[1] = Compound stability test in mouse blood; assay type: in vitro ADME; conditions: for half-life at 1 μM: male, CD-1, in vitro half-life in mouse blood; for half-life at 1 μM / Remaining Percentages (%): 37° C., 1 μM
Experimental: (§1) One (1) mM test compound working solution was prepared in DMSO. One (1) mM propantheline working solution was prepared in acetonitrile, wherein propantheline was used as positive control in this assay.
(§2) Ten (10) μL of each test compound solution and the control compound solution were respectively added into a 96 deep well plate, and 40 μL of acetonitrile:water (V/V=1:1) was added to each well to dilute the 1 mM test compound solution to 200 μM working solution.
(§3) Mouse blood (male CD-1 mouse blood, Pharmaron, Lot# PH-ADME-Mouse-20180329) or human blood (Pharmaron, Lot# PH-ADME-Human-20180329) of 398 μL was added to each well of an incubation plate, and then the incubation plate was pre-warmed at 37° C. for 15 minutes. After the pre-incubation, 2 μL of 200 μM working solution prepared above was spiked to the pre-warmed 398 μL blood to reach a final concentration of 1 μM. The final concentration of DMSO was 0.1% and the final concentration of acetonitrile was 0.2%. The assay was performed in duplicate.
(§4) The incubation plate was incubated at 37° C. water bath with shaking at 50 rpm, and aliquots of 50 μL were taken from each well of the incubation plate at 0, 10, 30, 60, 90, 120 and 180 minutes.
(§5) The reaction was stopped by the addition of 50 μL of pure water. The plate was vortexed for 30 seconds at 1,000 rpm and then added with 300 μL of cold acetonitrile containing internal standards (100 nM aprozolam, 200 nM caffeine, 100 nM tolbutamide).
(§6) All samples were vortexed for 10 minutes, followed by centrifugation at 14,000 rpm for 15 minutes to precipitate proteins. 100 μL of each supernatant was transferred to a new plate, and diluted with ultrapure water according to the LC-MS signal response and peak shape.
(§7) Samples were analyzed by LC-MS/MS.
(§8) • LC system: ACQUITY UPLC® I-Class • MS analysis: Waters XEVO® TQ-D with an ESI interface • Column temperature: 40° C. • Injection volume: 3 μL • Column: Waters XSelect HSS T3 C18, 2.5 μm, 2.1×50 mm column • Mobile phase: 0.1% formic acid in water (A) and 0.1% formic acid in acetonitrile (B)
(§9) • Ion source: Turbo spray • Ionization model: ESI • Scan type: MRM • Cone gas: 150 L/h • Desolvation gas: 1000 L/h • Desolvation temperature: 500° C. • Capillary voltage: 3.00 KV
(§10) All calculations were carried out using Microsoft Excel. Peak area ratios were determined from extracted ion chromatograms, and percent compounds remaining at each time point were calculated by the following equation:
(§11) Remaining Percentaget min(%)=Peak Area Ratiot min/Peak Area Ratio0 min×100, where Peak Area Ratiot min referred to peak area ratio of control and test compounds at t min; and Peak Area Ratio0 min referred to peak area ratio of control and test compounds at zero time point. The in vitro half-life (in vitro t1/2) was determined from the slope value: In vitro T1/2=−(0.693/k).

[2] = Compound stability test in human blood; assay type: in vitro ADME; conditions: for Remaining Percentages (%) / half-life at 1 μM: 37° C., 1 μM; for half-life at 1 μM: in vitro half-life in human blood
Experimental: as §1, §2, §3, §4, §5, §6, §7, §8, §9, §10, §11

[3] = Pharmacokinetic study of itraconazole release in mice after intravenous and oral dosing of Compound 3; assay type: in vivo, mouse; conditions: for Plasma itraconazole Concentration (ng/mL): mice, individual mice
Experimental: Compound 3 was dissolved in DMSO:PEG400:water (1:4:5, v/v/v) with a final concentration of 0.2 mg/ml or 0.5 mg/ml. The 0.2 mg/ml solution was used for intravenous dosing, and the 0.5 mg/ml solution was for oral dosing.
Three male C57BL/6 mice were intravenously administered with Compound 3 at a dose of 1.0 mg/kg, and blood samples were collected at 2 min, 15 min, 30 min, 1 h, 2 h, 4 h, 6 h, 8 h, and 24 h post administration.
Three male C57BL/6 mice were orally given Compound 3 at a dose of 5.0 mg/kg, and blood samples were collected at 15 min, 30 min, 1 h, 2 h, 4 h, 6 h, 8 h, and 24 h post administration.
And dose levels were corrected in PK parameter calculation due to the salt factor.
The blood samples were subject to LC-MS/MS analysis, to monitor the plasma concentrations of both the parent compound and Itraconazole.
Column: Waters XSELECT HSS T3 2.5 μm 2.1×50 mm
Mobile phase: 5% Acetonitrile in Water (0.1% Formic acid) (A) and 95% Acetonitrile in Water (0.1% Formic acid) (B)
Gradient: flow rate at 0.6 mL/min
AB Sciex Triple Quad 5500 LC/MS/MS instrument (Serial NO. BB212611510)
Quantification: Internal Standard Method

Structure (SMILES)	half-life at 1 μM [1]	Remaining Percentages (%) ([1]; mouse blood, 0 min)	Remaining Percentages (%) ([1]; mouse blood, 10 min)	Remaining Percentages (%) ([1]; mouse blood, 30 min)	Remaining Percentages (%) ([1]; mouse blood, 60 min)	Remaining Percentages (%) ([1]; mouse blood, 90 min)	Remaining Percentages (%) ([1]; mouse blood, 120 min)	Remaining Percentages (%) ([1]; mouse blood, 180 min)	Remaining Percentages (%) ([2]; human blood, 0 min)	Remaining Percentages (%) ([2]; human blood, 10 min)	Remaining Percentages (%) ([2]; human blood, 30 min)	Remaining Percentages (%) ([2]; human blood, 60 min)	Remaining Percentages (%) ([2]; human blood, 90 min)	Remaining Percentages (%) ([2]; human blood, 120 min)	Remaining Percentages (%) ([2]; human blood, 180 min)	half-life at 1 μM [2]	further results
CCC(C)n1ncn(-c2ccc(N3CCN(c4ccc(OCC5COC(Cn6c[n+](C)cn6)(c6ccc(Cl)cc6Cl)O5)cc4)CC3)cc2)c1=O.[Cl-] (centres unmarked) [Compound 1]	1.77 min	100%	2.01%	0.00%	0.00%	0.00%	0.00%	0.00%	100%	68.5%	32.6%	12.3%	7.80%	2.02%	0.36%	23.1 min	–
CCC(C)n1ncn(-c2ccc(N3CCN(c4ccc(OCC5COC(Cn6c[n+](CC)cn6)(c6ccc(Cl)cc6Cl)O5)cc4)CC3)cc2)c1=O.[Cl-] (centres unmarked) [Compound 2]	11.8 min	100%	40.1%	16.2%	3.79%	0.90%	0.175%	0.00%	100%	60.3%	26.1%	8.47%	3.59%	1.66%	0.30%	15.6 min	–
CCCOC(=O)OC[n+]1cnn(CC2(c3ccc(Cl)cc3Cl)OCC(COc3ccc(N4CCN(c5ccc(-n6cnn(C(C)CC)c6=O)cc5)CC4)cc3)O2)c1.[Cl-] (centres unmarked) [Compound 7]	7.12 min	100%	37.3%	BLOD	BLOD	BLOD	BLOD	BLOD	100%	25.3%	BLOD	BLOD	BLOD	BLOD	BLOD	5.07 min	–
CCC(C)n1ncn(-c2ccc(N3CCN(c4ccc(OCC5COC(Cn6c[n+](COC(=O)OC(C)C)cn6)(c6ccc(Cl)cc6Cl)O5)cc4)CC3)cc2)c1=O.[Cl-] (centres unmarked) [Compound 8]	21.9 min	100%	71.2%	40.2%	14.8%	7.0%	3.99%	1.03%	100%	31.6%	1.40%	0.785%	0.616%	BLOD	BLOD	6.03 min	–
CC(C)[N+](C)(CCOC(=O)C1c2ccccc2Oc2ccccc21)C(C)C [Propantheline, propantheline, reference compound]	38.8 min	100%	88.8%	62.4%	34.8%	20.4%	12.3%	4.44%	100%	85.5%	55.8%	29.2%	15.2%	6.83%	1.84%	32.8 min	–

The next lines start with results.

half-life at 1 μM [1]	Remaining Percentages (%) ([1]; mouse blood, 0 min)	Remaining Percentages (%) ([1]; mouse blood, 10 min)	Remaining Percentages (%) ([1]; mouse blood, 30 min)	Remaining Percentages (%) ([1]; mouse blood, 60 min)	Remaining Percentages (%) ([1]; mouse blood, 90 min)	Remaining Percentages (%) ([1]; mouse blood, 120 min)	Remaining Percentages (%) ([1]; mouse blood, 180 min)	Remaining Percentages (%) ([2]; human blood, 0 min)	Remaining Percentages (%) ([2]; human blood, 10 min)	Remaining Percentages (%) ([2]; human blood, 30 min)	Remaining Percentages (%) ([2]; human blood, 60 min)	Remaining Percentages (%) ([2]; human blood, 90 min)	Remaining Percentages (%) ([2]; human blood, 120 min)	Remaining Percentages (%) ([2]; human blood, 180 min)	half-life at 1 μM [2]	Structure (SMILES)	further results
59 min	100%	88.1%	67.1%	46.3%	30.3%	24.4%	12.0%	100%	94.0%	82.3%	67.5%	61.5%	55.3%	34.3%	123 min	CCC(C)n1ncn(-c2ccc(N3CCN(c4ccc(OCC5COC(Cn6c[n+](COC(C)=O)cn6)(c6ccc(Cl)cc6Cl)O5)cc4)CC3)cc2)c1=O.[Cl-] (centres unmarked) [Compound 3]	abnormal clinical symptoms during the test ([3]; male C57BL/6 mice, 1.0 mg/kg intravenous or 5.0 mg/kg oral Compound 3): No mice were observed with abnormal clinical symptoms; Plasma itraconazole Concentration (ng/mL) ([3]; IV Dose 0.860 mg/kg Compound 3, 8 h, 0.86 mg/kg): BLOQ; Plasma itraconazole Concentration (ng/mL) ([3]; IV Dose 0.860 mg/kg Compound 3, 24 h): BLOQ; Plasma itraconazole Concentration (ng/mL) ([3]; PO Dose 4.30 mg/kg Compound 3, 24 h): BLOQ; stability in blood, in words ([1]; mouse blood): more stable among exemplary compounds; stability in blood, in words ([2]; human blood): more stable among exemplary compounds
6.03 min	100%	31.5%	4.04%	BLOD	BLOD	BLOD	BLOD	100%	61.0%	30.2%	8.93%	4.67%	BLOD	BLOD	17.7 min	CCC(C)n1ncn(-c2ccc(N3CCN(c4ccc(OCC5COC(Cn6c[n+](COC(=O)C(C)C)cn6)(c6ccc(Cl)cc6Cl)O5)cc4)CC3)cc2)c1=O.[Cl-] (centres unmarked) [Compound 4]	–
4.84 min	100%	23.9%	1.48%	BLOD	BLOD	BLOD	BLOD	100%	69.4%	30.4%	9.76%	5.50%	2.08%	BLOD	18.1 min	CCC(C)n1ncn(-c2ccc(N3CCN(c4ccc(OCC5COC(Cn6c[n+](COC(=O)C(C)(C)C)cn6)(c6ccc(Cl)cc6Cl)O5)cc4)CC3)cc2)c1=O.[Cl-] (centres unmarked) [Compound 5]	–
